Experimental findings from US8058475B2, “Substituted cyclohexylmethyl compounds” (Gruenenthal GmbH, priority 2005, dated 2011) are described below.

Where two headings read alike, the source gives them in different places.

For this assay, the target named is human μ-opiate receptor (Homo sapiens, UniProt P35372). Put plainly: Affinity for the human μ-opiate receptor ([3H]-naloxone displacement, SPA, CHO-K1 membrane preparation). The conditions noted are these: for inhibition at 1 µM: read-out: μ-Opioid receptor, % inhibition [1 μM]; for Ki: read-out: μ-Opioid receptor, Ki. Type of assay: binding.
Sequence of human μ-opiate receptor (P35372 whole entry): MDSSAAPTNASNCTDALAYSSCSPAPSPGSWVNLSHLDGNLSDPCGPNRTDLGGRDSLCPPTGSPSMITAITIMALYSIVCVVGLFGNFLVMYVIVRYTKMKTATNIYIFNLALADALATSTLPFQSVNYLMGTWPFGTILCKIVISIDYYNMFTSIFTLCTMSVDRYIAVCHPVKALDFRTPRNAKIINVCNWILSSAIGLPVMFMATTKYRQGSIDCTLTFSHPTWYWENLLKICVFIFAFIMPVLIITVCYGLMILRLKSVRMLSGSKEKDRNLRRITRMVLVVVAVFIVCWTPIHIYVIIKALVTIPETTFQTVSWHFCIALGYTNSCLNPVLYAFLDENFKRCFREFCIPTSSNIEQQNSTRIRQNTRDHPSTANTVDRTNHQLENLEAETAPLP
Setting [1] is: 1 μM test substance, inhibition of specific [3H]-naloxone binding.

`Cc1ccccc1C(=O)NCCC1CCC(C(c2cccc(F)c2)N(C)C)CC1` (centres unmarked) [compound 420, N-(2-{4-[dimethylamino-(3-fluoro-phenyl)-methyl]-cyclohexyl}-ethyl)-2-methyl-benzamide]: the inhibition (commonly the share of the control response that was lost under treatment) at 1 µM came to 94% and the Ki (commonly a dissociation constant, usually derived from enzyme kinetics or from competition with a known ligand) stood at 16 nM. For `CN(C)C(c1ccc(F)cc1)C1CCC(NC(=O)c2cccc(Br)c2)CC1` (centres unmarked) [compound 263, 3-bromo-N-{4-[dimethylamino-(4-fluoro-phenyl)-methyl]-cyclohexyl}-benzamide] the same measures were 78% and 28 nM.

As for `CC(Oc1ccccc1)C(=O)NCC1CCC(C(c2ccccc2)N(C)C)CC1` (centres unmarked) [compound 323, N-[4-(dimethylamino-phenyl-methyl)-cyclohexylmethyl]-2-phenoxy-propionamide], the inhibition at 1 µM turned out to be 95% and the Ki was found to be 15 nM. For the molecule `CN(C)C(c1cccc(F)c1)C1CCC(CCNC(=O)c2cccc(Cl)c2)CC1` (single isomer, unassigned) [compound 401, 3-chloro-N-(2-{4-[dimethylamino-(3-fluoro-phenyl)-methyl]-cyclohexyl}-ethyl)-benzamide], the “μ-Opioid receptor, % inhibition [1 μM]” value worked out at 97% and the Ki came to 11 nM. In the case of `CN(C)C(c1cccs1)C1CCC(NC(=O)c2cncc(Br)c2)CC1` (centres unmarked) [compound 225, 5-bromo-N-[4-(dimethylamino-thiophen-2-yl-methyl)-cyclohexyl]-nicotinamide], the inhibition at 1 µM turned out to be 87% and the Ki was 20 nM. Regarding `CN(C)C(c1ccc(Cl)cc1)C1CCC(CCNC(=O)c2ccccc2Cl)CC1` (centres unmarked) [compound 403, 2-chloro-N-(2-{4-[(4-chloro-phenyl)-dimethylamino-methyl]-cyclohexyl}-ethyl)-benzamide], the inhibition at 1 µM amounted to 81% and the Ki was determined as 74 nM. For `CN(C)C(c1cccs1)C1CCC(NC(=O)c2csc(-c3ccc4c(c3)CCO4)n2)CC1` (centres unmarked) [compound 239, 2-(2,3-dihydro-benzofuran-5-yl)-thiazole-4-carboxylic acid [4-(dimethylamino-thiophen-2-yl-methyl)-cyclohexyl]-amide] the same measures were 82% and 80 nM.

Regarding `COc1cccc(C(=O)NC2CCC(C(c3cccs3)N(C)C)CC2)c1` (centres unmarked) [compound 199, N-[4-(dimethylamino-thiophen-2-yl-methyl)-cyclohexyl]-3-methoxy-benzamide], the inhibition at 1 µM was found to be 94% and the Ki amounted to 21 nM. Take `CN(C)C(c1ccccc1)C1CCC(CCNC(=O)c2ccc(Cl)cc2)CC1` (centres unmarked) [compound 405, 4-chloro-N-{2-[4-(dimethylamino-phenyl-methyl)-cyclohexyl]-ethyl}-benzamide]: the inhibition at 1 µM worked out at 88% and the Ki was found to be 25 nM. `CN(C)C(c1cccc(F)c1)C1CCC(CCNC(=O)c2ccccc2Cl)CC1` (centres unmarked) [compound 404, 2-chloro-N-(2-{4-[dimethylamino-(3-fluoro-phenyl)-methyl]-cyclohexyl}-ethyl)-benzamide]: the inhibition at 1 µM was found to be 97% and the Ki was determined as 19 nM. On to `Cc1nc(-c2ccccc2)sc1C(=O)NC1CCC(C(c2ccccc2)N(C)C)CC1` (centres unmarked) [compound 238, 4-methyl-2-phenyl-thiazole-5-carboxylic acid [4-(dimethylamino-phenyl-methyl)-cyclohexyl]-amide], for which the inhibition at 1 µM came to 83% and the Ki was 38 nM. For `Cc1oc(-c2ccccc2)cc1C(=O)NCC1CCC(C(c2ccc(Cl)cc2)N(C)C)CC1` (centres unmarked) [compound 330, 2-methyl-5-phenyl-furan-3-carboxylic acid {4-[(4-chloro-phenyl)-dimethylamino-methyl]-cyclohexylmethyl}-amide] the same measures were 94% and 39 nM. For `Cc1ccc(C(=O)NC2CCC(C(c3ccccc3)N(C)C)CC2)cc1` (centres unmarked) [compound 242, N-[4-(dimethylamino-phenyl-methyl)-cyclohexyl]-4-methyl-benzamide], in that order: 82% and 46 nM.

In the case of `Cc1oc(-c2ccccc2)cc1C(=O)NCC1CCC(C(c2ccccc2)N(C)C)CC1` (centres unmarked) [compound 345, 2-methyl-5-phenyl-furan-3-carboxylic acid [4-(dimethylamino-phenyl-methyl)-cyclohexylmethyl]-amide], the inhibition at 1 µM stood at 90% and the Ki was determined as 13 nM. For `CN(C)C(c1ccc(Cl)cc1)C1CCC(CNC(=O)c2ccccc2Cl)CC1` (centres unmarked) [compound 354, 2-chloro-N-{4-[(4-chloro-phenyl)-dimethylamino-methyl]-cyclohexylmethyl}-benzamide], in that order: 86% and 53 nM. For `CN(C)C(c1cccs1)C1CCC(CNC(=O)c2csc3ccccc23)CC1` (centres unmarked) [compound 302, benzo[b]thiophene-3-carboxylic acid [4-(dimethylamino-thiophen-2-yl-methyl)-cyclohexylmethyl]-amide], in that order: 99% and 1.6 nM.

Consider `CN(C)C(c1ccccc1)C1CCC(CCNC(=O)c2c(F)c(F)c(F)c(F)c2F)CC1` (centres unmarked) [compound 460, N-{2-[4-(dimethylamino-phenyl-methyl)-cyclohexyl]-ethyl}-2,3,4,5,6-pentafluoro-benzamide], for which the inhibition at 1 µM was found to be 97% and the Ki worked out at 9.5 nM. For `CN(C)C(c1cccs1)C1CCC(NC(=O)c2ccc(F)c(C(F)(F)F)c2)CC1` (centres unmarked) [compound 192, N-[4-(dimethylamino-thiophen-2-yl-methyl)-cyclohexyl]-4-fluoro-3-trifluoromethyl-benzamide], in that order: 98% and 18 nM. For `COc1cccc(CC(=O)NCC2CCC(C(c3ccccc3)N(C)C)CC2)c1` (centres unmarked) [compound 349, N-[4-(dimethylamino-phenyl-methyl)-cyclohexylmethyl]-2-(3-methoxy-phenyl)-acetamide] the same measures were 89% and 50 nM. For `CCCC(=O)N(c1ccccc1)C1CCC(C(c2ccccc2)N(C)C)CC1` (centres unmarked) [compound 180, N-(4-((dimethylamino)(phenyl)methyl)cyclohexyl)-N-phenylbutyramide], the inhibition at 1 µM is 90%. `CN(C)C(c1ccccc1)C1CCC(CCNC(=O)c2cccc(C#N)c2)CC1` (centres unmarked) [compound 477, 3-cyano-N-{2-[4-(dimethylamino-phenyl-methyl)-cyclohexyl]-ethyl}-benzamide]: the inhibition at 1 µM turned out to be 96% and the Ki is 13 nM. For `CSc1ncccc1C(=O)NCCC1CCC(C(c2ccccc2)N(C)C)CC1` (centres unmarked) [compound 466, N-{2-[4-(dimethylamino-phenyl-methyl)-cyclohexyl]-ethyl}-2-methylsulfanyl-nicotinamide], in that order: 86% and 41 nM. Regarding `Cc1ccccc1C(=O)NCC1CCC(C(c2ccccc2)N(C)C)CC1` (single isomer, unassigned) [compound 317, N-[4-(dimethylamino-phenyl-methyl)-cyclohexylmethyl]-2-methyl-benzamide], the inhibition at 1 µM was found to be 95% and the Ki is 29 nM. `CN(C)C(CCc1ccccc1)C1CCC(NC(=O)c2cccc(Cl)c2)CC1` (centres unmarked) [compound 241, 3-chloro-N-[4-(1-dimethylamino-3-phenyl-propyl)-cyclohexyl]-benzamide]: the inhibition at 1 µM came to 82% and the Ki amounted to 68 nM. As for `CN(C)C(c1ccc(Cl)cc1)C1CCC(O)(c2ccc(F)cc2)CC1` (centres unmarked) [compound 162, 4-[(4-chloro-phenyl)-dimethylamino-methyl]-1-(4-fluoro-phenyl)-cyclohexanol], the inhibition at 1 µM under setting [1] worked out at 59%. For `CC(=O)N(Cc1ccc(F)cc1)C1CCC(C(c2ccccc2)N(C)C)CC1` (centres unmarked) [compound 179, N-(4-((dimethylamino)(phenyl)methyl)cyclohexyl)-N-(4-fluorobenzyl)acetamide], the inhibition at 1 µM came out at 99% and the Ki was 3 nM. For `CC(=O)N(CCc1c[nH]c2ccccc12)C1CCC(C(c2ccccc2)N(C)C)CC1` (centres unmarked) [compound 182, N-(2-(1H-indol-3-yl)ethyl)-N-(4-((dimethylamino)(phenyl)methyl)cyclohexyl)-acetamide], in that order: 95% and 2.1 nM. For `CN(C)C(c1cccs1)C1CCC(CNC(=O)c2cc(F)cc(C(F)(F)F)c2)CC1` (centres unmarked) [compound 308, N-[4-(dimethylamino-thiophen-2-yl-methyl)-cyclohexylmethyl]-3-fluoro-5-trifluoromethyl-benzamide] the same measures were 98% and 7.4 nM. For `COc1ccccc1C(=O)NCCC1CCC(C(c2cccc(F)c2)N(C)C)CC1` (centres unmarked) [compound 415, N-(2-{4-[dimethylamino-(3-fluoro-phenyl)-methyl]-cyclohexyl}-ethyl)-2-methoxy-benzamide], in that order: 99% and 5.1 nM.

For the molecule `CN(C)C(c1cccs1)C1CCC(CNC(=O)c2cccc(C#N)c2)CC1` (centres unmarked) [compound 347, 3-cyano-N-[4-(dimethylamino-thiophen-2-yl-methyl)-cyclohexylmethyl]-benzamide], the inhibition at 1 µM is 90% and the Ki was 26 nM. Take `CN(C)C(c1cccc(F)c1)C1CCC(O)(CCc2ccccc2)CC1` (centres unmarked) [compound 153, 4-[dimethylamino-(3-fluoro-phenyl)-methyl]-1-phenethyl-cyclohexanol]: under setting [1], the inhibition at 1 µM is 87%. With `Cc1ccccc1C1(O)CCC(C(c2ccc(Cl)cc2)N(C)C)CC1` (centres unmarked) [compound 161, 4-[(4-chloro-phenyl)-dimethylamino-methyl]-1-o-tolyl-cyclohexanol], the inhibition at 1 µM under setting [1] was determined as 60%.

For `CN(C)C(c1cccc(F)c1)C1CCC(CNC(=O)Cc2ccccc2)CC1` (single isomer, unassigned) [compound 348, N-{4-[dimethylamino-(3-fluoro-phenyl)-methyl]-cyclohexylmethyl}-2-phenyl-acetamide], the “μ-Opioid receptor, % inhibition [1 μM]” value was 89% and the Ki turned out to be 30 nM.
